Measured values from ChEMBL document CHEMBL1158996, “Antiviral phloroglucinols from New Zealand Kunzea species” (1992).

Key:
Human alphaherpesvirus 1 = test: Antiviral activity against Herpes simplex virus type 1 assessed as inhibition of virus-induced cytopathic effect at 5 ug/disk; assay type: functional; conditions: read-out: IZ
Poliovirus 1 = test: Antiviral activity against Poliovirus type 1 assessed as inhibition of virus-induced cytopathic effect at 5 ug/disk; assay type: functional; conditions: Enterovirus C; read-out: IZ

| SMILES | zone of inhibition at 5 µg/disc (Human alphaherpesvirus 1) [mm] | zone of inhibition at 5 µg/disc (Poliovirus 1) [mm] |
| --- | --- | --- |
| COc1cc(O)cc(O)c1C(=O)C(C)C [ROBUSTAOL B] | 17 | 17 |
| COc1cc(O)c(C(=O)C(C)C)c(O)c1 | 17 | 17 |
